Measurements reported in patent US20240402196A1 (Exact Sciences Corporation, priority 2018, published 2024).
Like-named read-outs stand apart in the source and are kept apart here. One block for each molecule: values may come before it.

Target: hemoglobin in stool samples (Homo sapiens, UniProt P68871+P69905)
Assay: Accelerated shipping simulation (35C 16 hour challenge), hemoglobin % recovery by ELISA;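 note: stool hemoglobin measured by ELISA before and after thermal-cycler shipping stress, stability given as percent of pre-stress hemoglobin recovered afterwards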
Set-up: from tissue; host or cells: stool samples

hemoglobin in stool samples, sequence (P69905 2-142 limits assumed): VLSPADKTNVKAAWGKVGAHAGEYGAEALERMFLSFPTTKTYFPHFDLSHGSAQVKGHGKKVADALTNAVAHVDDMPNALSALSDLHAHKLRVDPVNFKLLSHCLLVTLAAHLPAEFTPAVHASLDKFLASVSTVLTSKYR
hemoglobin in stool samples, sequence (P68871 2-147 limits assumed): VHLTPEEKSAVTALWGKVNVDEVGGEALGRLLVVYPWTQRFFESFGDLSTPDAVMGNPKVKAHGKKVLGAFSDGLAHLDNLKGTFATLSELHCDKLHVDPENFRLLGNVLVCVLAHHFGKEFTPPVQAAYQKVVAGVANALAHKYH

Results (additive concentration 10 uM): No Improvement
Results (additive concentration 100 uM): No Improvement
Results (additive concentration 1 mM): No Improvement
Results (additive concentration 10 mM): No Improvement
SMILES: O=C(O)CC(NCCNC(CC(=O)O)C(=O)O)C(=O)O (centres unmarked)

Results (Additive Concentration 0.1 uM): No Improvement
Results (Additive Concentration 1 uM): No Improvement
Results (additive concentration 5 uM): No Improvement
Results (additive concentration 0.01 mM): No Improvement
Results (additive concentration 0.1 mM): No Improvement
Results (additive concentration 1 mM): No Improvement
Results (additive concentration 10 mM): No Improvement
SMILES: O=C([O-])CC[C@@H](C(=O)[O-])N(CC(=O)[O-])CC(=O)[O-].[Na+].[Na+].[Na+].[Na+]

Results (additive concentration 0.1 mM): No Improvement
Results (additive concentration 1 mM): No Improvement
Results (additive concentration 10 mM): No Improvement
SMILES: CC(C(=O)[O-])N(CC(=O)[O-])CC(=O)[O-].O.[Na+].[Na+].[Na+] (centres unmarked)

Results (additive concentration […]): No Improvement
SMILES: O=C(O)CCCCC1CCSS1 (racemic) [(±)-α-Lipoic acid]

Results (Additive Concentration 1 uM): No Improvement
Results (additive concentration 10 uM): No Improvement
Results (additive concentration 0.1 mM): No Improvement
Results (additive concentration 1 mM): No Improvement
SMILES: O[C@H](CS)[C@H](O)CS (racemic) [Dithiothreitol]

SMILES: C=CCn1cc[n+](C)c1.[Cl-] [1-Allyl-3-methylimidazolium Chloride]
Results (additive concentration 0.01 mM): No Improvement
Results (additive concentration 0.1 mM): No Improvement
Results (additive concentration 1 mM): No Improvement

Results (additive concentration 0.01 mM): No Improvement
Results (additive concentration 0.1 mM): No Improvement
Results (additive concentration 1 mM): No Improvement
SMILES: CCCCn1cc[n+](C)c1.[Cl-] [1-Butyl-3-methylimidazoium Chloride]

SMILES: O.O=c1cc(-c2ccccc2)oc2c(O)c(O)ccc12 [7,8 dihydroxyflavone hydrate]
Results (additive concentration 0.01 mM): No Improvement
Results (additive concentration 0.1 mM): No improvement
Results (additive concentration 1 mM): No Improvement

SMILES: O=P(O)(O)CN(CP(=O)(O)O)CP(=O)(O)O [ATMP]
Results (additive concentration 0.02 mM): No Improvement
Results (additive concentration 0.2 mM): No Improvement
Results (additive concentration 2 mM): No Improvement

Results (additive concentration 0.00003%): No Improvement
Results (additive concentration 0.00030%): No Improvement
Results (additive concentration 0.00300%): No Improvement
Results (additive concentration 0.03000%): No Improvement
SMILES: C=CC1=C(C)/C(=C/C2=NC(=C\c3[nH]c(/C=C4\NC(=O)C(C)=C4C=C)c(C)c3CCC(=O)O)/C(CCC(=O)O)=C2C)NC1=O [Biliverdin]

Results (additive concentration 5 uM): No Improvement
Results (additive concentration 10 uM): No Improvement
Results (additive concentration 100 uM): No Improvement
SMILES: O=C(/C=C/C(=O)Oc1c(Br)cc(Br)cc1C(=O)O)Oc1c(Br)cc(Br)cc1C(=O)O [Bis(3,5-dibromosalilcyl)fumarate]

Results (Additive Concentration 0.1 uM): No Improvement
Results (Additive Concentration 1 uM): No Improvement
Results (additive concentration 5 uM): No Improvement
Results (additive concentration 0.01 mM): No Improvement
Results (additive concentration 0.1 mM): No Improvement
Results (additive concentration 1 mM): No Improvement
Results (additive concentration 10 mM): No Improvement
SMILES: N[C@@H](CS)C(=O)O [Cysteine]

SMILES: O=c1c(-c2ccc(O)cc2)coc2cc(O)ccc12 [Daidzein]
Results (additive concentration 0.01 mM): No Improvement
Results (additive concentration 0.1 mM): No Improvement
Results (additive concentration 1 mM): No Improvement

Results (additive concentration 0.0005 mM): No Improvement
Results (additive concentration 0.5 uM): No Improvement
Results (additive concentration 0.002 mM): No Improvement
Results (additive concentration 5 uM): No Improvement
Results (additive concentration 50 uM): No Improvement
Results (additive concentration 1 mM): No Improvement
SMILES: O=C(O)[C@@H](COP(=O)(O)O)OP(=O)(O)O [Diphosphoglycerate (DPG)]

Results (additive concentration 5 mM): No Improvement
Results (additive concentration 10 mM): No Improvement
Results (additive concentration 30 mM): No Improvement
SMILES: O=C([O-])CN(CCN(CC(=O)[O-])CC(=O)O)CC(=O)O.[Na+].[Na+] [EDTA: Disodium Salt]

Results (additive concentration 0.718 mM): No Improvement
Results (additive concentration 5 mM): No Improvement
SMILES: CC1=NCC[C@@H](C(=O)O)N1 [Ectoine]

Results (additive concentration 72 uM): No Improvement
Results (additive concentration 720 uM): No Improvement
SMILES: OC[C@H]1OC(O)[C@H](O)[C@@H](O)[C@@H]1O (some centres unmarked) [Glucose]

Results (additive concentration 10 uM): No Improvement
Results (additive concentration 100 uM): No Improvement
Results (additive concentration 1 mM): No Improvement
Results (additive concentration 3 mM): No Improvement
SMILES: N[C@@H](CCC(=O)N[C@@H](CS)C(=O)NCC(=O)O)C(=O)O [Glutathione]

SMILES: NCC(=O)O [Glycine (no sample)]
Results: No improvement

Results (additive concentration 6 uM): Improvement in % Hb
SMILES: C=CC1=C(C)c2cc3[n-]c(cc4[n-]c(cc5nc(cc1n2)C(C)=C5C=C)c(C)c4CCC(=O)O)c(CCC(=O)O)c3C.O.[Fe+2] [Hematin]

Results (additive concentration 0.0003%): Improvement in % Hb
SMILES: C=CC1=C(C)c2cc3[n-]c(cc4[n-]c(cc5nc(cc1n2)C(C)=C5C=C)c(C)c4CCC(=O)O)c(CCC(=O)O)c3C.[Cl-].[Fe+3] [Hemin (DMSO)]

Results (additive concentration 0.00005%): Improvement in % Hb
Results (additive concentration 0.00005%, pH 6.5): Improvement in % Hb
Results (additive concentration 0.00009%): Improvement in % Hb
Results (additive concentration 0.00009%, pH 6.5): Improvement in % Hb
Results (additive concentration 0.0003%): Improvement in % Hb
Results (additive concentration 0.003%): Improvement in % Hb
Results (additive concentration 0.003%, pH 6.5): Improvement in % Hb
Results (additive concentration […]): Improvement in % Hb
Results (additive concentration […], pH 6.5): Improvement in % Hb
SMILES: C=CC1=C(C)c2cc3[n-]c(cc4nc(cc5[n-]c(cc1n2)c(C)c5C=C)C(C)=C4CCC(=O)O)c(CCC(=O)O)c3C.[Cl-].[Fe+3] [Hemin (H2O:NaOH)]

Results (additive concentration 14 mM): No Improvement
Results (additive concentration 140 mM): No Improvement
Results (additive concentration 500 mM): No Improvement
SMILES: C1N2CN3CN1CN(C2)C3 [Hexamethylenetetramine]

Results (additive concentration 0.0028 mM): No Improvement
Results (additive concentration 0.0228 mM): No Improvement
Results (additive concentration 0.228 mM): No Improvement
SMILES: N[C@@H](Cc1c[nH]cn1)C(=O)O [Histidine]

SMILES: NO [Hydroxylamine]
Results (additive concentration 25 uM): No Improvement
Results (additive concentration 0.5 mM): No Improvement

Results (additive concentration 25 uM): No Improvement
Results (additive concentration 0.5 mM): No Improvement
SMILES: c1c[nH]cn1 [Imidazole]

Results (additive concentration 10 mM): No Improvement
SMILES: O=C(O)CC(NC(CC(=O)O)C(=O)O)C(=O)O (centres unmarked) [Iminodisuccinic acid]

Results (additive concentration 0.0687 mM): No Improvement
Results (additive concentration 0.687 mM): No Improvement
Results (additive concentration 6.87 mM): No Improvement
SMILES: NCCCC[C@H](N)C(=O)O [Lysine]

SMILES: O=S(=O)([O-])CS(=O)(=O)[O-].[K+].[K+] [Methanedisulfonic acid dipotassium salt]
Results (additive concentration 10.69 mM): No Improvement

Results (additive concentration 0.4 mM): No Improvement
Results (additive concentration 4 mM): No Improvement
Results (additive concentration 40 mM): No Improvement
SMILES: O=S(=O)([O-])CCCS(=O)(=O)[O-].[Na+].[Na+] [Propanedisulfonic acid disodium salt]

Results (Additive Concentration 0.10%): No Improvement
Results (Additive Concentration 0.50%): No Improvement
Results (Additive Concentration 1%): No Improvement
SMILES: CC(O)CO (centres unmarked) [Propylene Glycol]

Results (additive concentration 1.25 uM): Improvement in % Hb
Results (additive concentration 5 uM): Improvement in % Hb
SMILES: C=CC1=C(C)c2cc3[n-]c(cc4nc(cc5[n-]c(cc1n2)c(C)c5C=C)C(C)=C4CCC(=O)O)c(CCC(=O)O)c3C.[Cl-].[Cr+3] [Protoporphyrin IX Chromium (Vendor 1)]

Results (additive concentration 1.25 uM): Improvement in % Hb
Results (additive concentration 5 uM): Improvement in % Hb
SMILES: C=CC1=C(C)c2cc3[n-]c(cc4nc(cc5[n-]c(cc1n2)c(C)c5C=C)C(C)=C4CCC(=O)O)c(CCC(=O)O)c3C.[Cl-].[Cr+3] [Protoporphyrin IX Chromium (Vendor 2)]

Results (additive concentration 1.25 uM): Improvement in % Hb
Results (additive concentration 5 uM): Improvement in % Hb
SMILES: C=CC1=C(C)c2cc3[n-]c(cc4nc(cc5[n-]c(cc1n2)c(C)c5C=C)C(C)=C4CCC(=O)O)c(CCC(=O)O)c3C.[Cl-].[Co+3] [Protoporphyrin IX Cobalt (Vendor 1)]
